# Laboratory results: patent US20250304594A1, “METHYL (R)-2-(FLUOROMETHYL)-5-OXO-4-PHENYL-4,5,6,7-TETRAHYDRO-1H-CYCLOPENTA[B]PYRIDINE-3-CARBOXYLATE AND METHYL (R)-2-(FLUOROMETHYL)-5-OXO-4-PHENYL-1,4,5,7-TETRAHYDROFURO[3,4-B]PYRIDINE-3-CARBOXYLATE AS Cav1,2 ACTIVATORS” (Novartis AG, priority 2020, published 2025)
# What was measured:
# [1] = molecular target: T1, human CaV1.2 (Homo sapiens, UniProt Q13936); assay: Sophion QPatch dose-response assay, whole-cell voltage clamp of barium currents in CaV1.2-HEK293(AUX) cells; assay type: cell-based; settings: for Qpatch Emax: maximal fold change of peak inward current
# T1 construct: expressed in transfected cells; host or cells: Flp-In 293 T-Rex (HEK293), monoclonal CaV1.2-HEK293(AUX) clone 2-19B; doxycycline-induced auxiliary subunits
# Description: (§1) The monoclonal CaV1.2-HEK293(AUX) cell line constitutively expresses human CaV1.2 alpha1C (α1C) subunit (CACNA1C) and has doxycycline-inducible expression of the alpha2delta (α2Δ2) auxiliary subunit (CACNA2D2) and beta2 (02) auxiliary subunit (CACNB2). To generate the cell line, expression vectors pcDNA5.0/FRT-TO-CACNA2D2-FCS-P2A-CACNB2 and pCMV6-entry-CACNA1C were established via gene synthesis and cloning. Here, pcDNA5.0/FRT-TO plasmid is from Invitrogen, pCMV6-entry is from Origene, FCS stands for Furin Cleavage Site, P2A is a peptide self-cleavage sequence derived from porcine teschovirus-1, and FRT is the Flippase recognition target site. Next, parental line Flp-In™ 293 T-Rex (Invitrogen) was transfected with pcDNA5.0/FRT-TO-CACNA2D2-FCS-P2A-CACNB2 and Flippase vector pOG44 (Invitrogen) to establish targeted integration of the CACNA2D2-FCS-P2A-CACNB2 expression cassette into the pre-engineered FRT site in Flp-In™ 293 T-Rex. This intermediate cell line was then transfected with pCMV6-entry-CACNA1C to establish stable CACNA1C expression. Clonal isolation was achieved under Neomycin selection.
# Electrophysiological Characterization of CaV1.2 Activators Using CaV1.2-HEK293(AUX) Cell Line and QPatch
# (§2) 24 hours prior an electrophysiology experiment, doxycycline (1 μg/ml) was added to the growth medium (Table 6), and 25 μM of verapamil was co-applied to prevent calcium influx triggered cell death. Cell confluency should reach 70%-80% right before the experiment. To harvest cells (from a T175 cm^2 flask as an example), growth media were removed completely, and the cells were rinsed with 10 mL of D-PBS. D-PBS was aspirated, and 10 mL of Detachin (Genlantis) was added and the plate was placed in a 37° C. incubator for 10 minutes. Detached cells were placed into a 15 mL conical tube and spun at 1000 rpm for 2 minutes. Supernatant was removed, and cells were re-suspended in QPatch complete media (Table 7) to desired cell density of 1.5-3 million cells per QPatch run. Each experimental run uses 1.5 mL of cells.
# (§3) The cells suspension was taken to the Sophion QPatch platform that uses whole-cell voltage clamp to measure barium currents conducted through CaV1.2 on single-hole QPlates. Extracellular and intracellular patch clamp solutions are described in Tables 7 and 8, respectively. A dose-response assay protocol was used to determine the maximal fold change of peak inward current (Emax) and potency (EC50) of each compound. The protocol had eight liquid periods. The first liquid period was to stabilize current amplitude, which was monitored using repetitive 200-ms voltage pulses stepping from −80 mV to 0 mV. The second liquid period was to determine baseline current amplitude in the presence of vehicle control, using a single 20-ms voltage pulse stepping from −80 mV to 0 mV. The third through eighth liquid periods were used to ascertain a 6-dose response to compound treatments, also using single 20-ms voltage pulses stepping from −80 mV to 0 mV. The EC50 was generated using the following equation Iconcentration=Ibase+(Ifull−Ibase)*c^n/(XC50^n+c^n), where c is the concentration and n is the Hill coefficient constant. Ifull is the maximal current achievable, and Ibase is 0. A channel biophysics assay protocol was used to determine channel gating properties including current-voltage relationship (IV curves), half-way channel activation voltage (V1/2), rate of channel inactivation (tau), and amplitude of tail current. Among these, V1/2 was derived from fitting equation G(V)=Gvmin+(Gvmax−Gvmin)/(1+exp(−(V−V½)/Vslope)), where G stands for conductance, Gvmin equals 0, Gvmax is the maximal conductance, and Vslope is a slope factor. G(V) was pre-calculated from equation G(V)=I(V)/(V−0.06), for each experimentally applied depolarization potential (V) and the corresponding current amplitude (I(V)), and 0.06 in the equation was the experimentally determined reversal potential in volts. The protocol had four liquid periods.
# [2] = molecular target: T1, human CaV1.2; assay: QPatch channel biophysics assay (channel gating, V1/2 of activation, inactivation) in CaV1.2-HEK293(AUX) cells; assay type: cell-based
# Description: as §1, with “selection. A cell clone (2-19B) with good voltage-dependent Barium current (see electrophysiology methods below) was selected for characterization of CaV1.2 activators.” for “selection.”
# as §2
# as §3, with “The protocol had four liquid periods.” left out
# [3] = Table 10 comparative examples, single enantiomers of reported racemates
# [4] = Table 9, 6-point dose response, 10 determinations per concentration, n = 1 unless * n = 2
# [5] = Table 9, shift of half-way channel activation voltage V1/2
# T1 sequence (Q13936 1-2138 isoform Q13936-23): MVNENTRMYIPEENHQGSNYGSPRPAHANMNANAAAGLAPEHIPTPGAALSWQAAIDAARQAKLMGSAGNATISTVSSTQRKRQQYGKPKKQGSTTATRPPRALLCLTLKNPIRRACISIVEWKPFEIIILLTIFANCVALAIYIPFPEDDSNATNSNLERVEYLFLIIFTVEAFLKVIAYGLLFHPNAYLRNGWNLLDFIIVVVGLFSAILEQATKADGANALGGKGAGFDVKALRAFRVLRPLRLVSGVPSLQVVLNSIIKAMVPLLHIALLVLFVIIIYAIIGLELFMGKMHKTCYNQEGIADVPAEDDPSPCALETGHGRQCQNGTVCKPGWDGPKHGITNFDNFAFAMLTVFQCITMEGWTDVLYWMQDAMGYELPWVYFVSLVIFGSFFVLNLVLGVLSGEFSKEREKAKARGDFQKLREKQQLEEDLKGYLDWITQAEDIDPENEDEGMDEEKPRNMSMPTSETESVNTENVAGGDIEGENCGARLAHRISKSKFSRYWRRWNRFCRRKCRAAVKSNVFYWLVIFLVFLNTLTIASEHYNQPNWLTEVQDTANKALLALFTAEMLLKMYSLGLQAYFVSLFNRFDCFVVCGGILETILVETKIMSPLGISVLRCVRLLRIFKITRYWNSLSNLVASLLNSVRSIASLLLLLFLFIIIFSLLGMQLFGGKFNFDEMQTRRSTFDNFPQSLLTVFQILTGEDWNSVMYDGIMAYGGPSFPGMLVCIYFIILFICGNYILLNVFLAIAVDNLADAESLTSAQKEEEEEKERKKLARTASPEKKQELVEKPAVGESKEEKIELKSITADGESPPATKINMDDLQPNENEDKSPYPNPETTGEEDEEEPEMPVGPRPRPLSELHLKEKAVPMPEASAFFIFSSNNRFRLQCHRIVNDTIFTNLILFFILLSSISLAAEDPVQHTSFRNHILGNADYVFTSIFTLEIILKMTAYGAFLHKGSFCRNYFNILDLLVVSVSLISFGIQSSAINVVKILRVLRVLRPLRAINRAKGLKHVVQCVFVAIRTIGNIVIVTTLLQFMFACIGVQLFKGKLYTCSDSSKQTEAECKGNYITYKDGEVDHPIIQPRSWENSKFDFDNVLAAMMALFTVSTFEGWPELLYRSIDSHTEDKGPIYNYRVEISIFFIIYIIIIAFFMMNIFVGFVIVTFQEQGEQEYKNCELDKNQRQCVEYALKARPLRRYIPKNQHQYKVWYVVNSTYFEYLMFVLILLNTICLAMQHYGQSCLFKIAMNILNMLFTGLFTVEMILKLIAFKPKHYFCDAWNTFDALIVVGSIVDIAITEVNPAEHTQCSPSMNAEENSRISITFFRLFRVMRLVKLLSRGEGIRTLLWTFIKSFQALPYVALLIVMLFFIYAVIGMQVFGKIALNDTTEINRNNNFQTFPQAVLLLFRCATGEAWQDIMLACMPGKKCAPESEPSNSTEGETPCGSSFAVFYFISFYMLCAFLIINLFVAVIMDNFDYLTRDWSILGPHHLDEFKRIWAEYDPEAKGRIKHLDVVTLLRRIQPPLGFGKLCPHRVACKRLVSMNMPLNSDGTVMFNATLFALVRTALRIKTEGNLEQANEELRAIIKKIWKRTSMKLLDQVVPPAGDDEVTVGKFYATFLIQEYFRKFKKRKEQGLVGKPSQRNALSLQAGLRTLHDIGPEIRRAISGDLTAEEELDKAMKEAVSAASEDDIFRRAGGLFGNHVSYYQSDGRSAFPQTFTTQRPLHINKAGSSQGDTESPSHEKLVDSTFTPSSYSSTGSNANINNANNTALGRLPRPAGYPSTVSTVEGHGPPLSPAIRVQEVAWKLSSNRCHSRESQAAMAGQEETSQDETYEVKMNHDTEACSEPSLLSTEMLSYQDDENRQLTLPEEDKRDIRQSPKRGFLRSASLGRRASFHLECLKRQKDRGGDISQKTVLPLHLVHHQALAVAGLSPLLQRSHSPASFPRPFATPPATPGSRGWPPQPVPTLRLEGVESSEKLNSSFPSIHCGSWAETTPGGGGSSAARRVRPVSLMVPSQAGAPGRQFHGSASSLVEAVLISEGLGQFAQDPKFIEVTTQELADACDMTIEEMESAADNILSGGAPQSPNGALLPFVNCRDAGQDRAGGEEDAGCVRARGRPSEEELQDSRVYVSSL
# T1 sequence (Q9NY47 19-1001 partner limits assumed): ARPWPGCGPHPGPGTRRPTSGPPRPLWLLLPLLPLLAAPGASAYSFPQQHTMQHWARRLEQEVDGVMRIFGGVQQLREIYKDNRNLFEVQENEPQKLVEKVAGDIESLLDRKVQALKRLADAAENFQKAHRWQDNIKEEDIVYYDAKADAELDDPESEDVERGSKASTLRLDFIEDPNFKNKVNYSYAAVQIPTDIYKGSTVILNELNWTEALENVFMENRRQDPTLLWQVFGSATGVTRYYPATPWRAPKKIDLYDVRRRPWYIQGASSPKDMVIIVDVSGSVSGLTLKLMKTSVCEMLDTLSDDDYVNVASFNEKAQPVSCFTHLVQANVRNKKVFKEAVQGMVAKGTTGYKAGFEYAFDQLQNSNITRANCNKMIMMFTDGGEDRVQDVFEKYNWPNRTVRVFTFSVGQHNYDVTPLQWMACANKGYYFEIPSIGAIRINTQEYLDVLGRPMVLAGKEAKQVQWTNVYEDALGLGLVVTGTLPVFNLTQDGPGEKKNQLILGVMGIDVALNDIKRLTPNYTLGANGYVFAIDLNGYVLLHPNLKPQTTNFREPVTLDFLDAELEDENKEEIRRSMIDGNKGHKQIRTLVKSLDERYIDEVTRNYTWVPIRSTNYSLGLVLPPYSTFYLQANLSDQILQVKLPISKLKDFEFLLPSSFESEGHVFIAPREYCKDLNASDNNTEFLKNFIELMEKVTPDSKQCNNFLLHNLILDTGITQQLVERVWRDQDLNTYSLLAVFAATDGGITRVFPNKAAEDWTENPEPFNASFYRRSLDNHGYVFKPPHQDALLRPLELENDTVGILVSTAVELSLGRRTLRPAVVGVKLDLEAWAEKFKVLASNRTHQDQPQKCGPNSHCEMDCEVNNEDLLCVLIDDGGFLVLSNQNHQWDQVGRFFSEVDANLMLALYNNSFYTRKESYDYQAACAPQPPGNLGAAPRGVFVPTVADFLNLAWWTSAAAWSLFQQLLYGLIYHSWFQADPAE
# T1 sequence (Q9NY47 1002-1150 partner limits assumed): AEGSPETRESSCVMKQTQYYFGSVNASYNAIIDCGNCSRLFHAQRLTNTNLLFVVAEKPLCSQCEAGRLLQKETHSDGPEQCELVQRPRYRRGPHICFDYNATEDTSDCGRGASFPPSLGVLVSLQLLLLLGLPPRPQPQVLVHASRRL
# T1 sequence (Q08289 whole entry partner): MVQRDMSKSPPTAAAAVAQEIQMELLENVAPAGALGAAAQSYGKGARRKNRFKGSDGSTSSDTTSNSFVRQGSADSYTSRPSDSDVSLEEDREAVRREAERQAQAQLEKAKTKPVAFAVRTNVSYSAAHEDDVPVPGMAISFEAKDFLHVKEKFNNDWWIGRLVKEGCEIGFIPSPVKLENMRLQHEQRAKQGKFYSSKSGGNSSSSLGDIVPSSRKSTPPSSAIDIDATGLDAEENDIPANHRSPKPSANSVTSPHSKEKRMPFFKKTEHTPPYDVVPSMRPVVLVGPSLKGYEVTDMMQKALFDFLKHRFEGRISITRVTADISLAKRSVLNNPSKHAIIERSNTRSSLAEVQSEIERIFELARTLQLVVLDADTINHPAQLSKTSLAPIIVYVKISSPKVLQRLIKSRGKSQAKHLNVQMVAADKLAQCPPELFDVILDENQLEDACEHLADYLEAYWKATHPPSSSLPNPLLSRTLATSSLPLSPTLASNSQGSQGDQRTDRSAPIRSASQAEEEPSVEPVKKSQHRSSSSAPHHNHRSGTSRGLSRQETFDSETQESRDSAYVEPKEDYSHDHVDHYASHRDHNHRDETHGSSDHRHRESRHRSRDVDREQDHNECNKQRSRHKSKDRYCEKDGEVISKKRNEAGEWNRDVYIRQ
Compound,"EC50 [1, 3] [nM]","EC50 [1, 4] [nM]","Qpatch Emax ([1]; Table 9, n = 1 unless * n = 2)","Biophysics voltage shift (mV) [2, 5] [mV]",Qpatch Emax ([1]; Table 10 comparative examples),Biophysics voltage shift (mV) ([2]; Table 10 comparative examples)
"COC(=O)C1=C(C)NC2=C(C(=O)OC2)[C@H]1c1ccccc1C (single isomer, unassigned) [CAS# 85825-32-7, reference compound]",2240,–,–,–,–,–
"COC(=O)C1=C(CF)NC2=C(C(=O)OC2)[C@H]1c1cc(F)cc(F)c1CC(F)F (single isomer, unassigned) [Example 12]",–,80,2.3,−3.4,–,–
"COC(=O)C1=C(CF)NC2=C(C(=O)CC2)[C@H]1c1cc(F)cc(F)c1C1CC1 (single isomer, unassigned) [Example 14]",–,90,1.9,−5.5,–,–
"COC(=O)C1=C(CF)NC2=C(C(=O)OC2)[C@H]1c1cccc(F)c1OC(F)F (single isomer, unassigned) [Example 19]",–,60,1.8,−6.7,–,–
"COC(=O)C1=C(CF)NC2=C(C(=O)OC2)[C@H]1c1cc(F)ccc1OC(F)F (single isomer, unassigned) [Example 20]",–,220,3.0,−8.5,–,–
"COC(=O)C1=C(CF)NC2=C(C(=O)OC2)[C@H]1c1cc(F)ccc1C1CC1 (single isomer, unassigned) [Example 21]",–,30,2.8,−8.1,–,–
"COC(=O)C1=C(CF)NC2=C(C(=O)OC2)[C@H]1c1ccccc1C1CC1 (single isomer, unassigned) [Example 22]",–,50,2.8,−8.6,–,–
"COC(=O)C1=C(CF)NC2=C(C(=O)OC2)[C@H]1c1ccccc1C(F)(F)F (single isomer, unassigned) [Example 24]",–,160,–,–,–,–
"COC(=O)C1=C(CF)NC2=C(C(=O)CC2)[C@H]1c1cccc(F)c1CC(F)(F)F (single isomer, unassigned) [Example 25]",–,40,1.7,−4.2,–,–
"COC(=O)C1=C(CF)NC2=C(C(=O)CC2)[C@H]1c1cccc(F)c1CC(F)F (single isomer, unassigned) [Example 26]",–,300,2.0,−4.3,–,–
"COC(=O)C1=C(CF)NC2=C(C(=O)CC2)[C@H]1c1cccc(F)c1[C@@H](C)F (single isomer, unassigned) [Example 27, methyl (R)-4-(3-fluoro-2-((R or S)-1-fluoroethyl)phenyl)-2-(fluoromethyl)-5-oxo-4,5,6,7-tetrahydro-1H-cyclopenta[b]pyridine-3-carboxylate]",–,30,1.5,−8.7,–,–
"COC(=O)C1=C(CF)NC2=C(C(=O)CC2)[C@H]1c1cc(F)cc(F)c1[C@H](C)F (single isomer, unassigned) [Example 29, methyl (R)-4-(3,5-difluoro-2-((S or R)-1-fluoroethyl)phenyl)-2-(fluoromethyl)-5-oxo-4,5,6,7-tetrahydro-1H-cyclopenta[b]pyridine-3-carboxylate]",–,50,1.4,–,–,–
"CCc1ccccc1[C@H]1C(C(=O)OC)=C(CF)NC2=C1C(=O)OC2 (single isomer, unassigned) [Example 30]",–,90,1.8,–,–,–
"COC(=O)C1=C(C(F)F)NC2=C(C(=O)OC2)[C@H]1c1cccc(F)c1[C@@H](C)F (single isomer, unassigned) [Example 31, methyl (R)-2-(difluoromethyl)-4-(3-fluoro-2-((R or S)-1-fluoroethyl)phenyl)-5-oxo-1,4,5,7-tetrahydrofuro[3,4-b]pyridine-3-carboxylate]",–,290,1.6,–,–,–
"CCOC(=O)C1=C(C)NC2=C(C(=O)OC2)[C@H]1c1ccccc1OCc1ccccc1 (single isomer, unassigned) [RS30124, reference compound]",45,–,–,–,4.3,−15.4
"COC(=O)C1=C(C)NC(C)=C([N+](=O)[O-])[C@H]1c1ccccc1C(F)(F)F (single isomer, unassigned) [reference compound]",–,–,–,–,3.9,–
